Reference: patent publication US20200223837A1, “BENZOFURAN AMIDES AND HETEROAROMATIC ANALOGUES THEREOF FOR USE IN THERAPY” (European Molecular Biology Laboratory, priority 2017, published 2020)
Counter-ions that a name gives are not always drawn.

test system: EGR1 promoter; experiment: EGR1 reporter assay (luciferase) in genomically engineered HeLa cell line; assay type: cell-based; conditions: Homo sapiens; EGR1 reporter HeLa cells, luciferase activity after 24 hours with compound
Description: The compounds of the present invention can be characterized for their effect on expression of egr1 (early growth response protein 1) using an EGR1 reporter cell line.
The HeLa cell line was genetically modified to provide a simple, robust and highly reproducible cell-based assay reporting the activity of an endogenous EGR1 promoter. In brief, a construct encoding EGFP and luciferase proteins, separated by a self-cleaving P2A peptide was inserted, using CRISPR, immediately downstream (3′) to the promoter of endogenous EGR1. Upon treatment with compounds, cells express EGFP and luciferase from EGR1 promoter, which can be readily detected either in live cells using microscopy or cytometry, or through detection of luciferase activity in cell lysates.
To achieve stable genomic integration of an EGR1-promoter dual reporter, two plasmids were generated: one contained the reporter construct (eGFP-P2A-luciferase) flanked by homology arms that direct insertion into genomic DNA, by homologous recombination, of a break in genomic DNA generated by guide RNA targeted cleavage by Cas9 endonuclease. The gRNA expressing plasmid was based on px330 (56), into which a gRNA sequence that targets a break in gDNA close to the start codon of EGR1 was cloned. The left homology arm (encoding part of EGR1 promoter adjacent to its start codon) and right homology arm (encoding […] of start codon of EGR1) were cloned from gDNA using the following primers: […]
The present compounds can be tested, e.g. by using a HeLa cell line carrying an EGR1 reporter construct which allows for expression of luciferase and eGFP (enhanced GFP) controlled by the EGR1 promoter. For this reporter cells are seeded in the wells of a 384 well microtiter plate at a density of 2000 cells per well in 48 μl of DMEM supplemented with 4.5 g/l glucose, 2 mM glutamine and 10% FCS and are incubated for 24 hours at 37° C. with 5% CO2 and 95% humidity. Then, an eleven point 1:3 serial dilution of each test compound, from an initial concentration of 100 μM, is prepared in DMSO and the dilutions are added to the cells in a volume of 2 μl per well. The cells are incubated for a further 24 hours, after which the luciferase activity of each well is determined by addition of 25 μl of luciferase substrate reaction mixture (Britelite™ plus, Perkin Elmer) and measuring the bioluminescence light output (EnVision Xcite plate reader, PerkinElmer).
The compound of example 64 served as a positive control for this EGR1 reporter assay. The compound of example 64 had been identified in an initial high throughput screening campaign.

EC50 [µM]	Compound
0.01 to 10	Cc1cccc2c(CC(=O)Nc3ncc(C(F)(F)F)s3)coc12 [Example 72, 2-(7-Methylbenzofuran-3-yl)-N-[5-(trifluoromethyl)thiazol-2-yl]acetamide]
0.01 to 10	O=C(Cc1coc2cc3c(cc12)CCC3)NCCNc1ncc(CO)s1 [Example 80, 2-(6,7-Dihydro-5H-cyclopenta[f]benzofuran-3-yl)-N-[2-[[5-(hydroxymethyl)thiazol-2-yl]amino]ethyl]acetamide]
0.01 to 10	Cc1cc2occ(CC(=O)N(c3ccc(SC(F)F)cc3)c3nc4ccccc4s3)c2cc1C(C)C [Example 81, N-(1,3-Benzothiazol-2-yl)-N-[4-(difluoromethylsulfanyl)phenyl]-2-(5-isopropyl-6-methyl-benzofuran-3-yl)acetamide]
0.01 to 10	Cc1ccc2c(CC(=O)N(c3ccc(SC(F)F)cc3)c3nc4ccccc4s3)coc2c1C [Example 82, N-(1,3-Benzothiazol-2-yl)-N-[4-(difluoromethylsulfanyl)phenyl]-2-(6,7-dimethylbenzofuran-3-yl)acetamide]
0.01 to 10	Cc1ccc2c(CC(=O)Nc3ncc(C(F)(F)F)s3)coc2c1Cl [Example 83, 2-(7-Chloro-6-methyl-benzofuran-3-yl)-N-[5-(trifluoromethyl)thiazol-2-yl]acetamide]
0.01 to 10	CCc1cnc(NC(=O)Cc2coc3cc4c(cc23)CCC4)s1 [Example 84, 2-(6,7-Dihydro-5H-cyclopenta[f]benzofuran-3-yl)-N-(5-ethylthiazol-2-yl)acetamide]
0.01 to 10	COc1c(C)ccc2c(CC(=O)Nc3ncc(C)s3)coc12 [Example 86, 2-(7-Methoxy-6-methyl-benzofuran-3-yl)-N-(5-methylthiazol-2-yl)acetamide]
0.01 to 10	COCc1cnc(NC(=O)Cc2coc3c(C)c(C)ccc23)s1 [Example 87, 2-(6,7-Dimethylbenzofuran-3-yl)-N-[5-(methoxymethyl)thiazol-2-yl]acetamide]
0.01 to 10	Cc1cnc(NC(=O)Cc2coc3c(C)c(C)ccc23)s1 [Example 88, 2-(6,7-Dimethylbenzofuran-3-yl)-N-(5-methylthiazol-2-yl)acetamide]
0.01 to 10	COCc1cnc(NC(=O)Cc2coc3c(Cl)c(C)ccc23)s1 [Example 89, 2-(7-Chloro-6-methyl-benzofuran-3-yl)-N-[5-(methoxymethyl)thiazol-2-yl]acetamide]
0.01 to 10	Cc1cnc(NC(=O)Cc2coc3c(Cl)c(C)ccc23)s1 [Example 90, 2-(7-Chloro-6-methyl-benzofuran-3-yl)-N-(5-methylthiazol-2-yl)acetamide]
0.01 to 10	COc1ccc2c(CC(=O)Nc3ncc(C(F)(F)F)s3)coc2c1C [Example 91, 2-(6-Methoxy-7-methyl-benzofuran-3-yl)-N-[5-(trifluoromethyl)thiazol-2-yl]acetamide]
0.01 to 10	Cc1cnc(NC(=O)Cc2coc3c(C)c(Cl)ccc23)s1 [Example 92, 2-(6-Chloro-7-methyl-benzofuran-3-yl)-N-(5-methylthiazol-2-yl)acetamide]
0.01 to 10	COCc1cnc(NC(=O)Cc2coc3c(Cl)c(Cl)ccc23)s1 [Example 93, 2-(6,7-Dichlorobenzofuran-3-yl)-N-[5-(methoxymethyl)thiazol-2-yl]acetamide]
0.01 to 10	Cc1c(Cl)ccc2c(CC(=O)Nc3ncc(C(F)(F)F)s3)coc12 [Example 94, 2-(6-Chloro-7-methyl-benzofuran-3-yl)-N-[5-(trifluoromethyl)thiazol-2-yl]acetamide]
0.01 to 10	Cc1ccc2c(CC(=O)Nc3ncc(C(C)C)s3)coc2c1C [Example 95, 2-(6,7-Dimethylbenzofuran-3-yl)-N-(5-isopropylthiazol-2-yl)acetamide]
0.01 to 10	COc1c(C)ccc2c(CC(=O)Nc3ncc(C(F)(F)F)s3)coc12 [Example 97, 2-(7-Methoxy-6-methyl-benzofuran-3-yl)-N-[5-(trifluoromethyl)thiazol-2-yl]acetamide]
0.01 to 10	CCc1cnc(NC(=O)Cc2coc3c(C)c(C)ccc23)s1 [Example 98, 2-(6,7-Dimethylbenzofuran-3-yl)-N-(5-ethylthiazol-2-yl)acetamide]
0.01 to 10	Cc1ccc2c(CC(=O)Nc3ncc(C(F)(F)F)s3)coc2c1C [Example 99, 2-(6,7-Dimethylbenzofuran-3-yl)-N-[5-(trifluoromethyl)thiazol-2-yl]acetamide]
0.01 to 10	NCc1ccc(-c2csc(NC(=O)Cc3coc4cc5c(cc34)CCC5)n2)o1 [Example 100, hydrochloride salt]
0.01 to 10	Cc1ccc2c(CC(=O)N(c3ccc(SC(F)F)cc3)c3nc4ccccc4s3)coc2c1 [Example 102, N-(1,3-Benzothiazol-2-yl)-N-[4-(difluoromethylsulfanyl)phenyl]-2-(6-methylbenzofuran-3-yl)acetamide]
10 to 100	CNC(=O)c1nc(NC(=O)Cc2coc3c(C)c(C)ccc23)sc1C(F)(F)F [Example 103, 2-(2-(6,7-dimethylbenzofuran-3-yl)acetamido)-N-methyl-5-(trifluoromethyl)thiazole-4-carboxamide]
10 to 100	Cc1cnc(NC(=O)Cc2coc3ncccc23)s1 [Example 104, 2-(Furo[2,3-b]pyridin-3-yl)-N-(5-methylthiazol-2-yl)acetamide]
0.01 to 10	O=C(Cc1coc2ncccc12)Nc1ncc(C(F)(F)F)s1 [Example 106, 2-(Furo[2,3-b]pyridin-3-yl)-N-(5-(trifluoromethyl)thiazol-2-yl)acetamide]

Compound	EC50 [µM]
Cc1cc2occ(CC(=O)Nc3nc(-c4ccc(CN)cc4)cs3)c2cc1C [Example 101, N-[4-[4-(Aminomethyl)phenyl]thiazol-2-yl]-2-(5,6-dimethylbenzofuran-3-yl)acetamide, hydrochloride salt]	0.01 to 10

test system: patient derived CLL samples; experiment: Growth inhibition of cells derived from patients with CLL; assay type: cell-based; conditions: 45 of 97 samples; three days incubation, ATPlite
Protocol: HeLa, A549 and HCT116 cells were grown in high-glucose Dulbecco's Modified Eagle's Medium (DMEM, Sigma)+10% FBS+1% penicillin and streptomycin+1% L-glutamine, at 37° C. with 5% CO2 and 95% humidity. Cytotoxic screening of the ProQinase panel of 100 cell-lines was performed by ProQinase (Freiburg, Germany). Patient derived CLL isolates were prepared and screened as described by Dietrich et al. (S. Dietrich et al., J Clin Invest, 2018, 128(1), 427-445). Cell viability was determined after 48 hours using the ATP-based CellTiter Glo assay (Promega). Luminescence was measured with a Tecan Infinite F200 Microplate Reader (Tecan Group AG) and with an integration time of 0.2 seconds per well.
The response of 97 tumour samples derived from patients with CLL was investigated. All samples tumor cells were obtained from whole blood, subjected to Ficoll-Isopaque density centrifugation. CD19+B and CD3+ T cells were isolated by positive magnetic cell separation (Miltenyi Biotec). Sorted cells were checked for purity by fluorescence-activated cell sorting (FACS) with CD19/CD20 for healthy control samples and CD19/CD20/CD5 for CLL samples (BD Biosciences). Following sorting, all samples with a CD19/CD20/CD5 purity <98% were subjected to additional sorting, and the average final purity of all sorted samples was >99%. CLL samples with >[…] were not subject to purification.
Cells are incubated for three days with an eight-point three-fold titration series of the test compound from an initial concentration of 30 μM (2000 cells per well in a volume of 50 μl). Cellular viability is estimated by the addition of 25 μL of ATPlite (Perkin Elmer) with the resulting luminescence measured using an EnVision Xcite plate reader (Perkin Elmer).
In addition, the growth inhibitory response of a selection of 27 patient derived CLL isolates (S. Dietrich et al., J Clin Invest, 2018, 128(1), 427-445) against the compounds of examples 64 and 85 was evaluated using the procedure as described above.

Compound	patient samples killed with an EC50 less than 10 μM [%]
Cc1cccc2c(CC(=O)Nc3ncc(C(F)(F)F)s3)coc12 [Example 72, 2-(7-Methylbenzofuran-3-yl)-N-[5-(trifluoromethyl)thiazol-2-yl]acetamide]	46

same assay, conditions: 90 of 97 samples; three days incubation, ATPlite

Compound	patient derived CLL samples with cytotoxic effect [%]
Cc1cccc2c(CC(=O)Nc3ncc(C(F)(F)F)s3)coc12 [Example 72, 2-(7-Methylbenzofuran-3-yl)-N-[5-(trifluoromethyl)thiazol-2-yl]acetamide]	93

target: T1, pirin (Homo sapiens, UniProt O00625); experiment: Surface plasmon resonance on immobilized pirin (Biacore); assay type: binding; design: hexahistidine tag (N); strep tag (C); host or cells: E. coli; conditions: SPR, pirin on CM7 chip, PBS with 2% DMSO and 0.05% tween 20
T1 sequence (O00625 1-290): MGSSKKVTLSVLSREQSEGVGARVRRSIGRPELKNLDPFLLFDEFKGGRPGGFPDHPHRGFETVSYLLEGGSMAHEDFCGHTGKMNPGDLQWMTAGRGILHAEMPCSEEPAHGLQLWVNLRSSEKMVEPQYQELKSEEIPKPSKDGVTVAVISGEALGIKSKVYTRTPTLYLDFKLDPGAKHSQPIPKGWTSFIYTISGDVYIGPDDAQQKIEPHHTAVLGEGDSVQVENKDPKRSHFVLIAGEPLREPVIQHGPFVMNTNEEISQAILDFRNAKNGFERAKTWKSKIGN
Protocol: A control chip was also prepared under identical condition but without including pirin in the reaction. […] A series of increasing concentrations of compound, either the control ThPA or a compound of the present invention is then applied to the pirin modified CM7 chip in phosphate buffered saline containing 2% DMSO and 0.05% tween 20 and sensorgrams are recorded covering the association, equilibrium and dissociation phases of the response.

Kd [nM]	Compound
1600	Cc1cccc2c(CC(=O)Nc3ncc(C(F)(F)F)s3)coc12 [Example 72, 2-(7-Methylbenzofuran-3-yl)-N-[5-(trifluoromethyl)thiazol-2-yl]acetamide]

target: T1, pirin; experiment: Nano differential scanning fluorimetry (NanoDSF), thermal melting of pirin; conditions: 10 μM pirin in PBS, 20 μM test compound
Description: NanoDSF is an advanced Differential Scanning Fluorimetry method for measuring protein stability using intrinsic tryptophan or tyrosine fluorescence. The fluorescence of the tryptophans and tyrosines in a protein is strongly dependent on their close surroundings. Changes in protein structure typically affect both the intensity and the emission wavelength especially of tryptophan fluorescence. By measuring fluorescence intensity at 330 nm and 350 nm, the change in fluorescence intensity and the shift of the fluorescence maximum upon unfolding can be used to detect thermal melting of the protein. Proteins are stabilized when associated with ligands and show a shift in their melting temperatures. NanoDSF has the advantages of being label free and observing the protein in solution.
A 10 μM solution of pirin in phosphate buffered saline, with or without 20 μM test compound, is subject to thermal denaturation under fluorescence monitoring using a Prometheus NT.48 instrument of NanoTemper Technologies. Unliganded pirin has a complex biphasic melting curve. […] If the test compound is a ligand to pirin, it adopts a single thermal transition some 10° C. above that of apopirin.

Compound	increase in the Tm of melting
Cc1cc2occ(CC(=O)Nc3nc(-c4ccc(CN)cc4)cs3)c2cc1C [Example 101, N-[4-[4-(Aminomethyl)phenyl]thiazol-2-yl]-2-(5,6-dimethylbenzofuran-3-yl)acetamide, hydrochloride salt]	approximately 11 °C
